The subject of assay [1] is p52 (NF-kB2) nuclear translocation in HeLa cells. Kind of assay: NIK p52 Translocation Assay (non-classical NF-kB signaling). The format is cell-based. The note with it: Homo sapiens. In short, it runs like this:
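HeLa cells in 10% FBS medium were exposed to compound (0.2% DMSO final) and stimulated with 100 ng/mL anti-lymphotoxin β receptor antibody for 5 h. Fixed cells were immunostained for p52 with DRAQ5 counterstain and imaged by high-content imaging. IC50 from nuclear/cytoplasmic p52 signal ratio vs concentration.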

The target of assay [2] is T1, nuclear factor-kappa B (NF-kB)-inducing kinase (NIK) (Homo sapiens, UniProt Q99558).
T1 construct: made in house; host or cells: baculovirus-infected insect cells
In words: NIK Enzyme Inhibition Assay (Transcreener ADP assay). The format is biochemical.

Assay [3] deals with human embryonic kidney 293 cells. Kind of assay: 293-NIK TK Renilla Luciferase reporter (general measure of cell viability). The assay is classed as cell-based. The source says:
(1) The first assay was used to profile whether a test compound can inhibit the NF-kB signally through NIK inhibition without affecting cell viability. In this assay, human embryonic kidney 293 cells was stably transfected with a tetracycline-inducible NIK DNA construct containing a cytomegalovirus promoter plus two reporter DNA constructs. One reporter encoded firefly luciferase under the control of three repeats of an NF-kB response element from the ELAM-1 gene and reflects the level of NIK activity in the cells, whereas the other reporter constitutively expressed Renilla luciferase under the control of the herpes simplex virus thymidine kinase promoter and served as a general measure of cell viability. Cells were incubated with different concentrations of compounds (0.2% DMSO final) in medium containing 1 ug/mL doxycycline and 10% tet-system approved fetal bovine serum (Clontech) for 24 hours, after which the reporters' signals were detected using the Dual Glo luciferase detection system (Promega) according to the vendor's protocol. The compounds listed in Table 1 have the corresponding inhibitory value (IC50 in micromolar) for 293-NIK NF-kB-Luciferase activity (values for compounds are presented in the same order as found in Table 1): na, 0.059, na, na, na, 0.105, 0.027, na, 20, 1.2, na, 1.8, 0.0231, 0.879, 0.0361, 0.582, na, 0.142, na, 0.403, 0.059, 0.0331, na, na, 0.0573, 1.5, na, na, 0.0722, na, na, 0.589, 12.7, 3.7, 14.9, na, 0.707, 1, 0.0311, 0.332, 0.309, 0.0142, 0.051, 2.8, 0.129, na, na, 1.5, na, na, na, 1.3, 0.062, 20, 0.31, 0.104, 0.091, 0.037, 0.085, 0.279, na, 0.305, 0.064, 0.332, 0.133, 0.168, 0.217, 0.553, na and na.
The compounds in listed in Table 1 have the corresponding inhibitory value (IC50 in micromolar) for 293-NIK TK Renilla Luciferase activity: (values for compounds are presented in the same order as found in Table 1): 6.4, 3.6, 20, na, 1.6, 9.3, 18.5, na, na, 2.6, na, na, na, na, na, na, na, na, na, na, na, na, na, na, na, na, na, na, na, na, na, na, na, na, na, na, na, na, na, na, na, na, na, na, na, na, na, >20, na, na, na, 20, >20, 17, 1.3, 15.6, 0.967, 2.7, 11.2, 5.1, na, 20, 20, 20, 20, 20, 17.6, 20, na and na.
For orientation: Reporter assays use an easily measured gene product as a stand-in for the process of interest.

Assay [4] has as its system NF-kB signaling through NIK in human embryonic kidney 293 cells. Kind of assay: 293-NIK NF-kB-Luciferase reporter assay. The assay is classed as cell-based. Put shortly:
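HEK293 cells stably carrying tetracycline-inducible NIK plus NF-kB (ELAM-1 element) firefly luciferase and constitutive TK-Renilla viability reporter. Compounds (0.2% DMSO) incubated 24 h with 1 ug/mL doxycycline; Dual Glo luminescence read, IC50 from firefly signal.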

Assay [5] deals with REL-A (p65) nuclear translocation in HeLa cells. In words: NIK RelA Translocation Assay (classical NF-kB signaling). The format is cell-based. The note with it: Homo sapiens. Here is the method:
(2) A second set of cell assay was used to define the selectivity of NIK inhibitors toward inhibition of classical vs. non-classical NF-kB signaling and rely on quantification of the nuclear translocation of p52 (NF-kB2) and REL-A (p65) using high content cellular imaging. For the p52 (non-classical NF-kB signaling) nuclear translocation assay, HeLa cells were treated with different concentrations of compounds (0.2% DMSO final) in medium containing 10% fetal bovine serum and then stimulated with 100 ng/mL of an anti-lymphotoxin beta receptor antibody (R&D Systems) for 5 hours. In the REL-A nuclear translocation assay, HeLa cells were incubated with compounds (0.2% DMSO final) for 4.5 hours in medium containing 10% fetal bovine serum before stimulating them with 10 ng/mL tumor necrosis factor (TNF)-α (R&D Systems) for 30 minutes. Cells were fixed with 4% paraformaldehyde, permeabilized by adding 0.1% Triton X-100 in phosphate buffered saline, and then incubated with either 2 ug/mL anti-p52 antibody (Millipore) or 400 ng/mL anti-REL-A (p65) antibody (Santa Cruz Biotechnology). Finally, the cells were incubated with an Alexa488-labeled secondary antibody (Invitrogen) and DRAQ5 DNA stain (Biostatus). Imaging was carried out using an Opera reader (Perkin Elmer) and data are analyzed with the aid of Acapella software (Perkin Elmer). The p52 or REL-A translocation into the nucleus was quantified by the ratio of the nuclear to cytoplasmic signal intensity. The concentration of inhibitor required for 50% inhibition (IC50 values) in these cell assays were derived from the plots of signal vs. inhibitor concentration. The compounds in listed in Table 1 have the corresponding inhibitory value (IC50 in micromolar) for NIK p52 Translocation Assay (values for compounds are presented in the same order as found in Table 1, and “na” means the data for this assay is to be determined): 0.326, 0.33, na, na, na, 0.218, 0.07, na, na, na, 0.129, 7.6, 0.077, 3.4, na, 0.518, na, 0.059, 0.514, 0.127, na, na, 0.010, na, na, 0.313, 0.275, na, 0.0727, na, na, na, na, na, na, 0.194, na, 6.4, 0.22, 0.346, na, na, na and na, na, na, na, na, na, 0.447, na, 0.089, 0.479, 0.489, 0.243, 0.747, 1, na, 1.9, 0.552, 2.1, na. na, na, na, na and na.
The compounds in listed in Table 1 has the corresponding inhibitory value (IC50 in micromolar) for NIK RelA Translocation Assay (values for compounds are presented in the same order as found in Table 1): 0.326, 0.33, na, na, na, 0.218, 0.07, na, na, na, na, na, 0.129, 7.6, 0.077, 3.4, na, 0.518, na, 0.059, 0.514, 0.127, na, na, 0.010, na, na, 0.313, 0.275, na, na, 0.0727, na, na, na, na, na, na, 0.194, na, 6.4, 0.22, 0.346, na, na, na, na, na, na, na, na, na, 0.447, na, 0.089, 0.479, 0.489, 0.243, 0.747, 1, na, 1.9, 0.552, 2.1, na, na, na, na, na and na.

The mark [6] stands for this setting: HeLa, comparative data, Tables 16A-16D, read-out: NIK p52 Translocation (IC50).
Where [7] appears, read: comparative data, Tables 16A-16D, read-out: NIK ADP (Ki).
Where [8] appears, read: HEK293, comparative data, Tables 16A-16D, read-out: 293-NIK TK Renilla Luciferase (IC50).
The mark [9] stands for this setting: HEK293, comparative data, Tables 16A-16D, read-out: 293-NIK NF-kB-Luciferase (IC50).
The mark [10] stands for this setting: HeLa, comparative data, Tables 16A-16D, read-out: NIK RelA Translocation (IC50).
The mark [11] stands for this setting: HeLa cells, 100 ng/mL anti-lymphotoxin beta receptor antibody, 5 hours, read-out: inhibitory value (IC50) for NIK p52 Translocation Assay.
The mark [12] stands for this setting: HEK293, 293 cells, constitutive Renilla luciferase, 24 hours, read-out: inhibitory value (IC50) for 293-NIK TK Renilla Luciferase activity.
The mark [13] stands for this setting: HeLa cells, compounds 4.5 hours, 10 ng/mL TNF-α 30 minutes, read-out: inhibitory value (IC50) for NIK RelA Translocation Assay.
Where [14] appears, read: purified NIK 0.2-1 nM, 10 uM ATP, fluorescence polarization, Morrison's quadratic equation, read-out: inhibitory value (Ki) for NIK.
The mark [15] stands for this setting: HEK293, 293 cells with tetracycline-inducible NIK, 1 ug/mL doxycycline, 24 hours, read-out: inhibitory value (IC50) for 293-NIK NF-kB-Luciferase activity.

Here are results for ten compounds from patent publication US8901313B2, “6,5-heterocyclic propargylic alcohol compounds and uses therefor” (Genentech, Inc., priority 2011, dated 2014).

pIC50, pKi: −log10 of the molar value. Read-outs that look alike come from different tables or passages of the source. A value given as a limit tells only on which side of the number the result lay.

T1 sequence (Q99558 whole entry): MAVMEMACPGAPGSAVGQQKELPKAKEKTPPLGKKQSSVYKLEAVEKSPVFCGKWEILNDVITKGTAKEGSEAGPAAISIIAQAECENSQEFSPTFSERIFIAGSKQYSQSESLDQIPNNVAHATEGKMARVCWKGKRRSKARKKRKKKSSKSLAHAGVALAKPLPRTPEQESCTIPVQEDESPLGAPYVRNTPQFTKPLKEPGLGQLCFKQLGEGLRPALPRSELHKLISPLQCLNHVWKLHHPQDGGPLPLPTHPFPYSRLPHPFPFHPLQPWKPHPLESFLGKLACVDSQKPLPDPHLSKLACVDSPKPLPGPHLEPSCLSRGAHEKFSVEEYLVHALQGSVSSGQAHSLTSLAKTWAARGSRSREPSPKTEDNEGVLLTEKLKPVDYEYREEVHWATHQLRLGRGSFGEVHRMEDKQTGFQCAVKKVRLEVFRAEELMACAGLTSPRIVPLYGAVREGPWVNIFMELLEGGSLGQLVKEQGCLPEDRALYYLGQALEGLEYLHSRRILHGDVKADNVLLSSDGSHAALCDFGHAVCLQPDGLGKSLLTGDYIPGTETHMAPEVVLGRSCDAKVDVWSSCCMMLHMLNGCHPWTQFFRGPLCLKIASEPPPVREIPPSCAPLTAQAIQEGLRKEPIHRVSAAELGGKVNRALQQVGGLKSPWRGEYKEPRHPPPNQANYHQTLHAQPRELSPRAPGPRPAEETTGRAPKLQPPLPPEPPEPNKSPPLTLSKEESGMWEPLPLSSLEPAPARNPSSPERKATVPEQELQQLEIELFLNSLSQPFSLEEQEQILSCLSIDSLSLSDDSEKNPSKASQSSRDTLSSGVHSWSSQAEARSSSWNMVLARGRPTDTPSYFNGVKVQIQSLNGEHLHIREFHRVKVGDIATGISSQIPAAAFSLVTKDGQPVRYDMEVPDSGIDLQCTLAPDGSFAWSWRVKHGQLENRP

The term pIC50 denotes the IC50 on a negative log10 scale, so that one unit is a factor of ten. Broadly, the pKi is the negative decadic logarithm of the Ki, by convention in mol/L. Regarding `CN(C)C(=O)c1nn(-c2ccnc(N)n2)c2cc(C#CC(C)(O)c3ncco3)ccc12` (centres unmarked) [1-(2-aminopyrimidin-4-yl)-6-(3-hydroxy-3-(oxazol-2-yl)but-1-ynyl)-N,N-dimethyl-1H-indazole-3-carboxamide], the pIC50 was 6.46 in assay [1] (setting [6]), 6.23 in assay [3] (setting [8]), 7.29 in assay [4] (setting [9]) and below 4.70 in assay [5] (setting [10]). Besides, the negative logarithm of the Ki (pKi) in assay [2] (setting [7]) was 9.70.

Regarding `CC(O)(C#Cc1ccc2ncn(-c3ccnc(N)n3)c2c1)c1nccs1` (centres unmarked) [4-(1-(2-aminopyrimidin-4-yl)-1H-benzo[d]imidazol-6-yl)-2-(thiazol-2-yl)but-3-yn-2-ol], the pIC50 is 7.15 in assay [1] (setting [6]), 5.31 in assay [3] (setting [8]), 7.57 in assay [4] (setting [9]) and below 4.70 in assay [5] (setting [10]). Also, the pKi in assay [2] (setting [7]) is 9.52.

Take `CC(O)(C#Cc1ccc2cnn(-c3ccnc(N)n3)c2c1)c1ncco1` (centres unmarked) [4-(1-(2-aminopyrimidin-4-yl)-1H-indazol-6-yl)-2-(oxazol-2-yl)but-3-yn-2-ol]: the negative-log IC50 (pIC50) in assay [1] (setting [6]) is 7.11; in assay [3] (setting [8]), 6.29; in assay [4] (setting [9]), 7.44; in assay [5] (setting [10]) it was below 4.70. For the same compound, the pKi in assay [2] (setting [7]) is 9.52.

`Cc1nn(-c2ccnc(N)n2)c2cc(C#CC(C)(O)c3nccs3)ccc12` (centres unmarked) [4-(1-(2-aminopyrimidin-4-yl)-3-methyl-1H-indazol-6-yl)-2-(thiazol-2-yl)but-3-yn-2-ol]: the pIC50 in assay [1] (setting [6]) is 6.65; in assay [3] (setting [8]), 5.92; in assay [4] (setting [9]) it was 7.96; in assay [5] (setting [10]) it was below 4.70. Moreover, the negative logarithm of the Ki (pKi) in assay [2] (setting [7]) was 10.00.

With `CC(O)(C#Cc1ccc2c(c1)N(c1ccnc(N)n1)CC2)c1nccs1` (centres unmarked) [4-(1-(2-aminopyrimidin-4-yl)indolin-6-yl)-2-(thiazol-2-yl)but-3-yn-2-ol, reference compound], the negative-log IC50 (pIC50) is 6.06 in assay [1] (setting [6]), 5.41 in assay [3] (setting [8]), 6.90 in assay [4] (setting [9]) and below 4.70 in assay [5] (setting [10]). The pKi in assay [2] (setting [7]) is 8.57.

`CC(O)(C#Cc1ccc2cnn(-c3ccnc(N)n3)c2c1)c1nccs1` (centres unmarked) [Example T1-1, 4-(1-(2-aminopyrimidin-4-yl)-1H-indazol-6-yl)-2-(thiazol-2-yl)but-3-yn-2-ol]: the negative-log IC50 (pIC50) in assay [1] (setting [11]) was 6.49; in assay [3] (setting [12]), 5.19; in assay [5] (setting [13]), 6.49.

Take `CC(O)(C#Cc1ccc2cnn(-c3nc(N)ncc3Cl)c2c1)c1nccs1` (centres unmarked) [Example T1-6, 4-(1-(2-amino-5-chloro-pyrimidin-4-yl)-1H-indazol-6-yl)-2-(thiazol-2-yl)but-3-yn-2-ol]: the negative-log IC50 (pIC50) in assay [1] (setting [11]) was 6.66; in assay [3] (setting [12]), 5.03; in assay [4] (setting [15]) it was 6.98; in assay [5] (setting [13]) it was 6.66. Further, the pKi in assay [2] (setting [14]) was 9.85.

Take `CC(O)(C#Cc1ccc2ncn(-c3ccnc(N)n3)c2c1)c1nccs1` (centres unmarked) [Example T1-7, 4-(1-(2-aminopyrimidin-4-yl)-1H-benzo[d]imidazol-6-yl)-2-(thiazol-2-yl)but-3-yn-2-ol]: the negative-log IC50 (pIC50) in assay [1] (setting [11]) was 7.15; in assay [3] (setting [12]) it was 4.73; in assay [4] (setting [15]), 7.57; in assay [5] (setting [13]), 7.15. Also, the pKi in assay [2] (setting [14]) is 9.55.

Consider `Cc1nc2ccc(C#CC(C)(O)c3nccs3)cc2n1-c1ncnc(N)n1` (centres unmarked) [Example T1-53, 4-(1-(4-amino-1,3,5-triazin-2-yl)-2-methyl-1H-benzo[d]imidazol-6-yl)-2-(thiazol-2-yl)but-3-yn-2-ol], for which the pIC50 in assay [1] (setting [11]) is 6.32; in assay [3] (setting [12]), below 4.70; in assay [4] (setting [15]) it was 7.21; in assay [5] (setting [13]), 6.35. Moreover, in assay [2] (setting [14]), the negative-log Ki (pKi) is 9.40.

With `Cc1cc(C(C)(O)C#Cc2ccc3nc(C)n(-c4ncnc(N)n4)c3c2)no1` (centres unmarked) [Example T1-64, 4-(1-(4-amino-1,3,5-triazin-2-yl)-2-methyl-1H-benzo[d]imidazol-6-yl)-2-(5-methyl-isoxazol-3-yl)but-3-yn-2-ol], the pKi in assay [2] (setting [14]) was 8.30. Moreover, the negative logarithm of the IC50 (pIC50) in assay [3] (setting [12]) is at most 4.70; in assay [4] (setting [15]), 6.48; in assay [5] (setting [13]), 5.68.
